Assay results as given in patent US20190105367A1, “ANTIMICROBIAL 4-OXOQUINOLIZINES” (Emergent Product Development Gaithersburg Inc., priority 2011, published 2019).
In brackets after ≈: the same amount, converted by molar mass. Like-named read-outs stand apart in the source and are kept apart here.

Assays:
[1] = system: A. baumannii A387; experiment: Preliminary MBC without and with sub-inhibitory polymyxin B (Example 4); format: cell-based, Acinetobacter baumannii; settings: Acinetobacter baumannii
[2] = system: E. cloacae 13047; experiment: MIC, standard panel of Gram-positive and Gram-negative strains (Example 2); format: cell-based, Enterobacter cloacae; settings: Enterobacter cloacae, 13047; read-out: MIC E. cloacae 13047
[3] = system: strains of A. baumannii and one strain of Acinetobacter sp.; experiment: MIC without polymyxin B, panel of Acinetobacter strains (Example 4); format: cell-based; settings: Acinetobacter baumannii, ATCC19606, read-out: MIC range without PB Oct. 1, 2006 n = 8, 1st experiment; resistant strains, ATCC 19606, A329, A390 and A473 not taken
[4] = system: E. faecium 19434; experiment: MIC, standard panel of Gram-positive and Gram-negative strains (Example 2); format: cell-based; settings: Enterococcus faecium
[5] = system: E. faecalis 29212; experiment: as above; format: cell-based, Enterococcus faecalis; settings: Enterococcus faecalis, 29212; read-out: MIC E. faecalis 29212
[6] = system: A. baumannii A473; experiment: MIC without and with sub-inhibitory polymyxin B (Example 4); format: cell-based, Acinetobacter baumannii; settings: +0.06 μg/ml PB, 2nd experiment
[7] = system: A. baumanii 19606; experiment: MIC, standard panel of Gram-positive and Gram-negative strains (Example 2); format: cell-based; settings: Acinetobacter baumannii
[8] = system: S. aureus 101; experiment: as above; format: cell-based; settings: Staphylococcus aureus
[9] = Cytotoxicity (Example 7); format: cell-based; settings: human, HEPG2 V1 cells
Description: The 4-oxoquinolizine compounds of the invention preferably have a low cytotoxicity against human cells. […].
Cytotoxicity was determined for the instant 4-oxoquinolizine compounds which show low cytotoxicity. (see Table 17 following). […]

[10] = system: Acinetobacter sp. (H064200250); experiment: Preliminary MBC without and with sub-inhibitory polymyxin B (Example 4); format: cell-based; settings: Acinetobacter, preliminary MBC
Summary of the method: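 Plates were incubated for 18-20 hours at 37° C. MBC was taken as the lowest concentration giving colony growth ca. 90% below the positive control, typically where only single colonies or none appeared.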

[11] = system: A. baumannii A387; experiment: MIC without and with sub-inhibitory polymyxin B (Example 4); format: cell-based, Acinetobacter baumannii; settings: for MIC without PB/MIC + PB: A. baumannii A387; for MIC: Acinetobacter baumannii

## Cc1c(-c2ccc(N)cc2)ccn2c(=O)c(C(=O)O)cc(C3CC3)c12 [Compound 8, 8-(4-amino-phenyl)-1-cyclopropyl-9-methyl-4-oxo-quinolizine-3-carboxylic acid]
[1]; A387, A. baumannii A387, +0.06 μg/ml PB, 2nd experiment, read-out: MBC
  MBC: 0.25 µg/mL (≈ 0.748 µM)
[1]; A387, read-out: MBC +0.06 μg/ml PB, A. baumannii A387, +0.06 μg/ml polymyxin B, 1st experiment
  MBC: ≤ 0.03 µg/mL
[2]
  MIC: 0.25 µg/mL (≈ 0.748 µM)
[3]
  MIC: 2 to 32 µg/mL (≈ 5.98 to 95.7 µM)
[4]
  MIC: 0.5 µg/mL (≈ 1.5 µM)
[5]
  MIC: 0.03 µg/mL (≈ 0.0897 µM)
[6]; A. baumannii A473
  MIC without PB/MIC + PB: 8
[6]; Acinetobacter baumannii, A473, A. baumannii A473, read-out: MIC
  MIC: 0.5 µg/mL (≈ 1.5 µM)
[7]
  MIC: 0.125 µg/mL (≈ 0.374 µM)
[8]
  MIC: 0.5 µg/mL (≈ 1.5 µM)
[9]
  IC50: 90 µM
[10]; Acinetobacter spp. H064200250 (OXA51), +[…] PB, 2nd experiment, read-out: MBC
  MBC: 0.125 µg/mL (≈ 0.374 µM)
[10]; read-out: MBC +[…] PB, Acinetobacter spp. H064200250, +[…] polymyxin B, 1st experiment
  MBC: 0.5 µg/mL (≈ 1.5 µM)
[11]; +0.06 μg/ml PB, 2nd experiment
  MIC without PB/MIC + PB: 2
[11]; ratio, PB 0.06 μg/ml, 1st experiment
  MIC without PB/MIC + PB: ≥64
[11]; A387, A. baumannii A387, +0.06 μg/ml PB, 2nd experiment, read-out: MIC
  MIC: 0.5 µg/mL (≈ 1.5 µM)
[11]; A387, read-out: MIC +0.06 μg/ml PB, A. baumannii A387, +0.06 μg/ml polymyxin B, 1st experiment
  MIC: ≤ 0.03 µg/mL
